Values of other authors in patent US11123300B2, “Immediate release tablet of a benzothiophene compound” (Hexal AG, priority 2016, dated 2021).

In the case of `O=c1ccc2ccc(OCCCCN3CCN(c4cccc5sccc45)CC3)cc2[nH]1` [brexpiprazole, 7-[4-[4-(1-Benzothiophen-4-yl)piperazin-1-yl]butoxy]quinolin-2(1H)-one], the “solubility of brexpiprazole in water” value is given as 2.27 µg/mL.
